In the experiment the test system is HCV replicon. Description: HCV replicon replication assay (NPT level by captured ELISA). Type of experiment: cell-based. As to conditions: Hepatitis C virus, 72 h; Huh-7 HCV replicon-containing cells, three days incubation; read-out: Activity (inhibition of HCV replicon replication). Put shortly:
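Huh-7 cells carrying HCV subgenomic replicon (NS3–NS5B, neo reporter) treated 3 days at 37 °C with 6 concentrations from 10 to 0.03 micromolar in G418-free medium, equal DMSO across wells. Replication measured on day four as NPTII level by in-cell captured ELISA on fixed cells; interferon alpha as positive control.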

Each structure is given as a SMILES string.

`CCCCCOc1cc(Nc2nc(-c3cccnc3)cs2)ccc1C#N` [Cmp 27, 2-(pentyloxy)-4-(4-(pyridin-3-yl)thiazol-2-ylamino)benzonitrile]: the EC50 is < 1000 nM. The figure for `CC(=O)c1cc(Nc2nc(-c3cccnc3)cs2)ccc1Oc1ccc(Cl)cc1` [Cmp 84, 1-(2-(4-chlorophenoxy)-5-(4-(pyridin-3-yl)thiazol-2-ylamino)phenyl)ethanone] is < 1000 nM; for `CCCCCCCS(=O)(=O)CCc1ccc(Nc2nc(-c3cccnc3)cs2)cc1` [Cmp 20, N-(4-(2-(heptylsulfonyl)ethyl)phenyl)-4-(pyridin-3-yl)thiazol-2-amine] it is 1000 to 10000 nM. For the compound `CCCCCCCCC1Cc2ccc(Nc3nc(-c4cccnc4)c(F)s3)cc2O1` (stereo not drawn) [Cmp 129, 5-fluoro-N-(2-octyl-2,3-dihydrobenzofuran-6-yl)-4-(pyridin-3-yl)thiazol-2-amine], the EC50 was < 1000 nM. Regarding `CCCCCCCCc1ccc(Nc2nc(-c3cccnc3)c(F)s2)cc1C(F)(F)F` [Cmp 35, 5-fluoro-N-(4-octyl-3-(trifluoromethyl)phenyl)-4-(pyridin-3-yl)thiazol-2-amine], the EC50 was < 1000 nM. Then `Fc1sc(Nc2ccc(OCCCCC3CCCC3)c(C(F)(F)F)c2)nc1-c1cccnc1` [Cmp 190, N-(4-(4-cyclopentylbutoxy)-3-(trifluoromethyl)phenyl)-5-fluoro-4-(pyridin-3-yl)thiazol-2-amine], with < 1000 nM. In the case of `CCCCCCCCOc1ccc(Nc2nc(-c3ccc4nncn4c3)cs2)cc1C(F)(F)F` [Cmp 177, 4-([1,2,4]triazolo[4,3-a]pyridin-6-yl)-N-(4-(octyloxy)-3-(trifluoromethyl)phenyl)thiazol-2-amine], the EC50 was < 1000 nM.

On to `CCCCCCCCc1ccc(Nc2nc(-c3cccnc3)c(F)s2)cc1` [Cmp 31, 5-fluoro-N-(4-octylphenyl)-4-(pyridin-3-yl)thiazol-2-amine], for which the EC50 is < 1000 nM. On to `CCc1ccc(Oc2ccc(Nc3nc(-c4cccnc4)c(F)s3)cc2C(F)(F)F)cc1` [Cmp 98, N-(4-(4-ethylphenoxy)-3-(trifluoromethyl)phenyl)-5-fluoro-4-(pyridin-3-yl)thiazol-2-amine], for which the EC50 is < 1000 nM.

As to `COc1ncc(-c2nc(Nc3ccc(Oc4ccc(C#N)cc4)c(C(F)(F)F)c3)sc2F)cn1` [Cmp 96, 4-(4-(5-fluoro-4-(2-methoxypyrimidin-5-yl)thiazol-2-ylamino)-2-(trifluoromethyl)phenoxy)benzonitrile], the EC50 was < 1000 nM.

Regarding `CCCCCCCCc1cc2ccc(Nc3nc(-c4cccnc4)cs3)cc2o1` [Cmp 114, N-(2-octylbenzofuran-6-yl)-4-(pyridin-3-yl)thiazol-2-amine], the EC50 was < 1000 nM. Then `COc1ncc(-c2csc(Nc3ccc(C)c(OCC4CCCCC4)c3)n2)cn1` [Cmp 43, N-(3-(cyclohexylmethoxy)-4-methylphenyl)-4-(2-methoxypyrimidin-5-yl)thiazol-2-amine], with < 1000 nM; and `FC(F)(F)c1cc(Nc2nc(-c3cccnc3)cs2)ccc1OCCCCc1ccc(Cl)cc1` [Cmp 23, N-(4-(4-(4-chlorophenyl)butoxy)-3-(trifluoromethyl)phenyl)-4-(pyridin-3-yl)thiazol-2-amine], with < 1000 nM. Then `COc1ncc(-c2csc(Nc3ccc(Oc4ccccc4)c(C(F)(F)F)c3)n2)cn1` [Cmp 51, 4-(2-methoxypyrimidin-5-yl)-N-(4-phenoxy-3-(trifluoromethyl)phenyl)thiazol-2-amine], with < 1000 nM; and `CCCCCCCCOc1cc(Nc2nc(-c3ccc(F)cc3)cs2)ccc1C` [Cmp 45, 4-(4-fluorophenyl)-N-(4-methyl-3-(octyloxy)phenyl)thiazol-2-amine], with < 1000 nM; and `CCCCCCCCOc1ccc(Nc2nc(-c3cnc4[nH]c(=O)[nH]c4c3)cs2)cc1C(F)(F)F` [Cmp 187, 6-(2-(4-(octyloxy)-3-(trifluoromethyl)phenylamino)thiazol-4-yl)-1H-imidazo[4,5-b]pyridin-2(3H)-one], with < 1000 nM. Then `Cc1ccc(Nc2nc(-c3ccc(F)cc3)c(F)s2)cc1OCC1CCCCC1` [Cmp 61, N-(3-(cyclohexylmethoxy)-4-methylphenyl)-5-fluoro-4-(4-fluorophenyl)thiazol-2-amine], with < 1000 nM. In the case of `CC(=O)c1cc(Nc2nc(-c3cccnc3)c(F)s2)ccc1Oc1ccc(Cl)cc1` [Cmp 130, 1-(2-(4-chlorophenoxy)-5-(5-fluoro-4-(pyridin-3-yl)thiazol-2-ylamino)phenyl)ethanone], the EC50 was < 1000 nM.

Regarding `CCCCCCCCc1c(F)cc(Nc2nc(-c3cccnc3)c(F)s2)cc1F` [Cmp 138, N-(3,5-difluoro-4-octylphenyl)-5-fluoro-4-(pyridin-3-yl)thiazol-2-amine], the EC50 was < 1000 nM.

Consider `CCCCCCCCOc1ccc(Nc2nc(-c3ccc[n+](C)c3)cs2)cc1C(F)(F)F` [Cmp 142, 1-methyl-3-(2-(4-(octyloxy)-3-(trifluoromethyl)phenylamino)thiazol-4-yl)pyridinium], for which the EC50 lay within 1000 to 10000 nM. Then `Cc1ccc(Nc2nc(-c3ccc(F)cc3)cs2)cc1OCCOc1ccccc1` [Cmp 41], with < 1000 nM; and `CCCCCCCCOc1ccc(Nc2nc(-c3cncc(O)c3)cs2)cc1C(F)(F)F` [Cmp 152, 5-(2-(4-(octyloxy)-3-(trifluoromethyl)phenylamino)thiazol-4-yl)pyridin-3-ol], with < 1000 nM; and `CCCCCCCc1nc2cc(Nc3nc(-c4cccnc4)c(F)s3)ccc2o1` [Cmp 93, N-(5-fluoro-4-(pyridin-3-yl)thiazol-2-yl)-2-heptylbenzo[d]oxazol-5-amine], with < 1000 nM. The figure for `CCCCCCCCc1ccc(Nc2nc(-c3ccc(O)c(C(N)=O)c3)c(Cl)s2)cc1C(F)(F)F` [Cmp 185, 5-(5-chloro-2-(4-octyl-3-(trifluoromethyl)phenylamino)thiazol-4-yl)-2-hydroxybenzamide] is < 1000 nM; for `CCCCCCCCc1ccc(Nc2nc(-c3cncc(C#N)c3)cs2)cc1C(F)(F)F` [Cmp 180, 5-(2-(4-octyl-3-(trifluoromethyl)phenylamino)thiazol-4-yl)nicotinonitrile] it is < 1000 nM. Regarding `CCCCCOc1cc(Nc2nc(-c3cnc(OC)nc3)c(F)s2)ccc1C(F)(F)F` [Cmp 77, 5-fluoro-4-(2-methoxypyrimidin-5-yl)-N-(3-(pentyloxy)-4-(trifluoromethyl)phenyl)thiazol-2-amine], the EC50 is < 1000 nM. Then `CCCCCc1nc2ccc(Nc3nc(-c4cccnc4)c(F)s3)cc2o1` [Cmp 67, N-(5-fluoro-4-(pyridin-3-yl)thiazol-2-yl)-2-pentylbenzo[d]oxazol-6-amine], with < 1000 nM.

(Values after US8183263B2 (priority 2007, dated 2012).)
